This note sets out measurements from PubChem BioAssay AID1259411 (Chemical Carcinogenesis Research Information System (CCRIS), 2018).

SMILES strings stand for the structures. Active and inactive are the calls of the source. No rule for the calls is given here.

This data set deals with rodent carcinogenicity bioassays, tumor incidence. The experiment in a line: CCRIS carcinogenicity studies. The essentials: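 Archive of carcinogenicity, mutagenicity, tumor promotion and tumor inhibition results drawn from journals, NCI reports and other sources, expert-reviewed; covers 1985-2011 and is no longer updated.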

With `Nc1ccc(Cl)cc1`, the carcinogen call was “inactive; negative” (Species: MOUSE, Strain/Sex: B6C3F1/F, Route: GAVAGE, Dose: 0, 3, 10, 30 MG/KG IN ACIDIFIED WATER 5D/WK FOR 103 WK (STUDY DURATION: 104 WK, Dose: 0, 3, 10, 30 MG/KG IN ACIDIFIED WATER 5D/WK FOR 103 WK (STUDY DURATION: 104 WK); “equivocal” (Species: MOUSE, Strain/Sex: B6C3F1/FEMALE, Route: ORAL, Dose: 0, 2500, 5000 PPM IN DIET FOR 78 WK (STUDY DURATION: 91 WK), Dose: 0, 2500, 5000 PPM IN DIET FOR 78 WK (STUDY DURATION: 91 WK), Tumor Site: Type of Lesion: SPLEEN: HEMANGIOMA AND HEMANGIOSARCOMA, LIVER: HEMANGIOSARCOMA, MULTIPLE ORGANS: HEMANGIOSARCOMA, Tumor Site: Type of Lesion: SPLEEN: HEMANGIOMA AND HEMANGIOSARCOMA, LIVER: HEMANGIOSARCOMA, MULTIPLE ORGANS: HEMANGIOSARCOMA); “active; positive” (Species: MOUSE, Strain/Sex: B6C3F1/MALE, Route: GAVAGE, Dose: 0, 3, 10, 30 MG/KG IN ACIDIFIED WATER 5D/WK FOR 103 WK (STUDY DURATION: 104 WK), Dose: 0, 3, 10, 30 MG/KG IN ACIDIFIED WATER 5D/WK FOR 103 WK (STUDY DURATION: 104 WK), Tumor Site: Type of Lesion: LIVER: HEPATOCELLULAR CARCINOMA, LIVER: HEPATOCELLULAR ADENOMA OR CARCINOMA, CIRCULATORY SYSTEM: HEMANGIOSARCOMA, Tumor Site: Type of Lesion: LIVER: HEPATOCELLULAR CARCINOMA, LIVER: HEPATOCELLULAR ADENOMA OR CARCINOMA, CIRCULATORY SYSTEM: HEMANGIOSARCOMA); “equivocal” (Species: MOUSE, Strain/Sex: B6C3F1/MALE, Route: ORAL, Dose: 0, 2500, 5000 PPM IN DIET FOR 78 WK (STUDY DURATION: 91 WK), Dose: 0, 2500, 5000 PPM IN DIET FOR 78 WK (STUDY DURATION: 91 WK), Tumor Site: Type of Lesion: SPLEEN: HEMANGIOSARCOMA, LIVER: HEMANGIOMA AND HEMANGIOSARCOMA, KIDNEY: HEMANGIOSARCOMA, MULTIPLE ORGANS: HEMANGIOSARCOM, Tumor Site: Type of Lesion: SPLEEN: HEMANGIOSARCOMA, LIVER: HEMANGIOMA AND HEMANGIOSARCOMA, KIDNEY: HEMANGIOSARCOMA, MULTIPLE ORGANS: HEMANGIOSARCOM); “equivocal” (Species: RAT, Strain/Sex: F344/FEMALE, Route: GAVAGE, Dose: 0, 2, 6, 18 MG/KG IN ACIDIFIED WATER 5D/WK FOR 103 WK (STUDY DURATION: 104 WK), Dose: 0, 2, 6, 18 MG/KG IN ACIDIFIED WATER 5D/WK FOR 103 WK (STUDY DURATION: 104 WK), Tumor Site: Type of Lesion: SPLEEN: SARCOMA, ADRENAL GLAND: PHEOCHROMOCYTOMA); “inactive; negative” (Species: RAT, Strain/Sex: F344/FEMALE, Route: ORAL, Dose: 0, 250, 500 PPM IN DIET FOR 78 WK (STUDY DURATION: 102 WK), Dose: 0, 250, 500 PPM IN DIET FOR 78 WK (STUDY DURATION: 102 WK)). In addition, the carcinogen call by setting is: (Species: RAT, Strain/Sex: F344/MALE, Route: GAVAGE, Dose: 0, 2, 6, 18 MG/KG IN ACIDIFIED WATER 5D/WK FOR 103 WK (STUDY DURATION: 104 WK), Dose: 0, 2, 6, 18 MG/KG IN ACIDIFIED WATER 5D/WK FOR 103 WK (STUDY DURATION: 104 WK), Tumor Site: Type of Lesion: ADRENAL MEDULLA: PHEOCHROMOCYTOMA, ADRENAL MEDULLA: PHEOCHROMOCYTOMA OR MALIGNANT PHEOCHROMOCYTOMA, SPLEEN: FIBROSARCOMA, Tumor Site: Type of Lesion: ADRENAL MEDULLA: PHEOCHROMOCYTOMA, ADRENAL MEDULLA: PHEOCHROMOCYTOMA OR MALIGNANT PHEOCHROMOCYTOMA, SPLEEN: FIBROSARCOMA) “active; positive”; (Species: RAT, Strain/Sex: F344/MALE, Route: ORAL, Dose: 0, 250, 500 PPM IN DIET FOR 78 WK (STUDY DURATION: 102 WK), Dose: 0, 250, 500 PPM IN DIET FOR 78 WK (STUDY DURATION: 102 WK), Tumor Site: Type of Lesion: SPLEEN OR PERITONEUM: SARCOMA) “active; positive”; (Species: RAT, Strain/Sex: F344/MALE, Route: ORAL, Dose: 0, 250, 500 PPM IN DIET FOR 78 WK (STUDY DURATION: 102 WK), Dose: 0, 250, 500 PPM IN DIET FOR 78 WK (STUDY DURATION: 102 WK), Tumor Site: Type of Lesion: SPLEEN: FIBROMA AND SARCOMA) “equivocal”.

For `Nc1ccc(N)c(Cl)c1`, the carcinogen call (Species: MOUSE, Strain/Sex: B6C3F1/FEMALE, Route: ORAL, Dose: 0, 0.3, 0.6% OF DIET, Dose: 0, 0.3, 0.6% OF DIET) is “inactive; negative”; the carcinogen call (Species: MOUSE, Strain/Sex: B6C3F1/MALE, Route: ORAL, Dose: 0, 0.3, 0.6% OF DIET, Dose: 0, 0.3, 0.6% OF DIET) is “inactive; negative”; the carcinogen call (Species: RAT, Strain/Sex: F344/FEMALE, Route: ORAL, Dose: 0, 0.15, 0.30% OF DIET, Dose: 0, 0.15, 0.30% OF DIET) was “inactive; negative”; the carcinogen call (Species: RAT, Strain/Sex: F344/MALE, Route: ORAL, Dose: 0, 0.15, 0.30% OF DIET, Dose: 0, 0.15, 0.30% OF DIET) was “inactive; negative”.

`CC/C(C)=N\O`: the carcinogen call (Species: MOUSE, Strain/Sex: CD-1/FEMALE, Route: INHALATION, Dose: 0, 15, 75, 374 PPM 6 HR/D 5 D/WK FOR 26 MO (STUDY DURATION: 26 MO), Dose: 0, 15, 75, 374 PPM 6 HR/D 5 D/WK FOR 26 MO (STUDY DURATION: 26 MO)) was “inactive; negative”; the carcinogen call (Species: MOUSE, Strain/Sex: CD-1/MALE, Route: INHALATION, Dose: 0, 15, 75, 374 PPM 6 HR/D 5 D/WK FOR 26 MO (STUDY DURATION: 26 MO), Dose: 0, 15, 75, 374 PPM 6 HR/D 5 D/WK FOR 26 MO (STUDY DURATION: 26 MO), Tumor Site: Type of Lesion: LIVER: CARCINOMA, ADENOMA OR CARCINOMA) was “active; positive”; the carcinogen call (Species: RAT, Strain/Sex: F344/FEMALE, Route: INHALATION, Dose: 0, 15, 75, 374 PPM 6 HR/D 5 D/WK FOR 26 MO (STUDY DURATION: 26 MO), Dose: 0, 15, 75, 374 PPM 6 HR/D 5 D/WK FOR 26 MO (STUDY DURATION: 26 MO)) is “inactive; negative”; the carcinogen call (Species: RAT, Strain/Sex: F344/MALE, Route: INHALATION, Dose: 0, 15, 75, 374 PPM 6 HR/D 5 D/WK FOR 26 MO (STUDY DURATION: 26 MO), Dose: 0, 15, 75, 374 PPM 6 HR/D 5 D/WK FOR 26 MO (STUDY DURATION: 26 MO), Tumor Site: Type of Lesion: LIVER: ADENOMA, CARCINOMA, ADENOMA OR CARCINOMA) is “active; positive”.

Turning to `CC(C)(Oc1ccc(C2CC2(Cl)Cl)cc1)C(=O)O` (stereo not drawn), the carcinogen call (Species: RAT, Strain/Sex: F344/MALE, Route: ORAL, Dose: 10 MG/KG IN DIET FOR 60 WK, Tumor Site: Type of Lesion: LIVER: HEPATOCELLULAR CARCINOMA) was “active; positive”.
